Publication PMC5271370, “A High-Content Assay Enables the Automated Screening and Identification of Small Molecules with Specific ALDH1A1-Inhibitory Activity” (PLoS ONE, 2017)
pIC50: −log10 of the molar value. Like-named read-outs stand apart in the source and are kept apart here.

Legend:
HT-29 cells = assay: 1,536-well high-content imaging ALDEFLUOR assay, HT-29; format: cell-based, human
Method: (§1) To miniaturize the assay into a 1536-well format amenable to qHTS, we chose MIA PaCa-2 and HT-29 because of their high levels of ALDH1A1(Fig 1A). Utilizing the 8-step protocol described by Ming et al. as a starting point, we developed a “semi-automated” protocol described in S1 Table. Briefly, we plated 1,000 cells in a volume of 5 μL/well into black-optical quality clear bottom 1,536-well plates, and allowed cells to attach overnight. Culture media was subsequently removed by inverting and centrifuging plates using a plate adaptor as previously described and replaced with 5 μL of a solution of either 500 or 100 nM BAAA substrate in ALDEFLUOR buffer. To identify cells based on nuclear staining, we also included 0.5 nM Hoechst 33342 in the above buffer. […] After incubating the plate for 30 minutes at 37°C, 5% CO2, 85% RH, the remaining substrate was removed by centrifugation as above and replaced with 3 μL of ALDEFLUOR buffer. Fluorescence was subsequently imaged using the IN Cell Analyzer 2200 high-content widefield fluorescence based imager and the resulting images were quantified using the IN Cell Investigator v1.6.2 analysis software (see Experimental Procedures for analysis details).
(§2) The ALDEFLUOR kit was purchased from […] Technologies (Vancouver, Canada; #01700). Cells (5 μL) were dispensed into black, optical quality (cyclic olefin copolymer) clear bottom, medium binding TC treated 1,536-well plates (Aurora Microplates, Whitefish MT) using a Multidrop Combi dispenser (ThermoFisher) and incubated overnight (37°C, 5% CO2, 85% RH). Media was subsequently removed by centrifuging plates upside down using a plate adaptor to collect media. A solution of BAAA substrate ([…] Technologies) and Hoechst 33342 (ThermoFisher, final concentrations of 500 nM and 0.5 nM, respectively) in ALDEFLUOR buffer ([…] Technologies #01700) was dispensed onto cells using a Multidrop Combi followed by immediate transfer (23 nL) of compound or control solutions using a Wako Pin-tool (final percentage of DMSO in the cell plates was 0.5%). Unless otherwise noted, all compounds were assayed as 16-point dilutions spanning a final concentration range of 1.4 nM to […]. […] Cells were incubated for 30 minutes or the indicated amount of time at 37°C, 5% CO2, 85% RH to allow the conversion of BAAA into BAA. Supernatant was subsequently removed by centrifugation as described above, then ALDEFLUOR buffer (3 μl) was dispensed by Multidrop Combi before imaging on an IN Cell 2200 (GE Healthcare).
(§3) The above assay was modified for an online robotic screening system. After cell plating and overnight incubation, 4 μL of media were removed using a 64-tip metal aspirator head on a Wako aspirator station, leaving 1 μL remaining in the well, followed by a 4 μL dispense of BAAA and Hoechst 33342 in ALDEFLUOR buffer, for a final concentration of 500 nM and 0.5 nM, respectively. Immediately following the dispense, 23 nL of compound or control solutions were transferred using a Wako Pin-tool. Cells were incubated for 30 minutes at 37°C, 5% CO2, 85% RH, followed by a 4 μL media removal using the Wako aspirator, and a subsequent 3 μL addition of ALDEFLUOR buffer. Plates were then immediately read on the IN Cell 2200 as described below.
(§4) For images captured on the IN Cell 2200 widefield automated microscope, a 10x 0.45 NA Plan Apo objective lens was used to capture the entire well of the 1,536-well plate using standard DAPI (390/18x, 432/48m) and FITC (475/28x, 525/48m) filter sets at 50 msec and 100 msec exposures, respectively. Images were subsequently analyzed using IN Cell Investigator v1.6.2 analysis software’s canned Multi-Target Analysis algorithm (GE Healthcare). Hoechst stained nuclei were identified using top hat segmentation with a minimum area of 75 μm^2 and sensitivity of 93. […]

LN-229 cells = assay: 1,536-well high-content imaging ALDEFLUOR assay, LN-229; format: cell-based, human; conditions: fully automated assay, Fig 5
Method: We next sought to test if the fully automated high-content assay could be used to detect ALDH1A1-specific inhibitors.
as §2
as §3, with “Cells were incubated for 30 minutes at 37°C, 5% CO2, 85% RH, followed by a 4 μL media removal using the Wako aspirator, and a subsequent 3 μL addition of ALDEFLUOR buffer.” left out
as §4, with “Healthcare).” for “Healthcare). Hoechst stained nuclei were identified using top hat segmentation with a minimum area of 75 μm^2 and sensitivity of 93.”
The same controls were also used for the calculation of the Z’ factor for each assay. The Z’ factor, a measure of assay quality control, was determined as previously described. […] All concentration–response curves were fitted as before and IC50 were calculated with the GraphPad Prism software.

ALDH1A1 = conditions: reported ALDH target 1A1; read-out: Reported Biochemical IC50, ALDH1A1; cited from earlier work
Human ALDH1A1 = biological target: T1, Human ALDH1A1 (Homo sapiens, UniProt P00352); assay: 1,536-well enzymatic assay (NADH fluorescence), ALDH1A1; format: biochemical; conditions: validation set; 20 nM enzyme, NAD+ and propionaldehyde; read-out: Biochemical IC50 ALDH1A1
T1 construct: made in house
T1 sequence (P00352 1-501): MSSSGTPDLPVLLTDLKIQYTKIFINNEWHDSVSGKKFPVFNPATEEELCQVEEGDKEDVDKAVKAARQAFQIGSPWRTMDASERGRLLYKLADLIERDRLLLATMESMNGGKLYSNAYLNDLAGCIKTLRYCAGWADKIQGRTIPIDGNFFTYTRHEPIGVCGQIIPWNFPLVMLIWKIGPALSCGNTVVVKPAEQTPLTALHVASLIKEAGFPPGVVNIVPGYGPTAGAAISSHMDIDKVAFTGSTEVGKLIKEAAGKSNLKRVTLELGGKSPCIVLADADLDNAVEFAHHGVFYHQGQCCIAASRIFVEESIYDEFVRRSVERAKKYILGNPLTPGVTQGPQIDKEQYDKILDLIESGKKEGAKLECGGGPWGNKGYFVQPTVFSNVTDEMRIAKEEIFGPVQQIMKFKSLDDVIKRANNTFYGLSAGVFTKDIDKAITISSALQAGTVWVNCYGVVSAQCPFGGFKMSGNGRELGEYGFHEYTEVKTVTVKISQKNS
Text: To validate our optimized assay, we assembled a set of 20 previously reported ALDH inhibitors, with varying degrees of target specificity (Table 1 and S4 Fig). […] Briefly, the assay measures the dehydrogenase activity of recombinant human ALDH1A1, ALDH1A2, ALDH1A3, ALDH2 or ALDH3A1 using NAD(P)^+ and either propionaldehyde or benzaldehyde as substrates. An orthogonal resorufin-based assay format was also run with isolated ALDH1A1 to rule out potential false positives due to intrinsic compound fluorescence.
Human ALDH1A1 and ALDH3A1 were expressed and purified as described elsewhere. Human ALDH2 was purchased from Abcam (ab87415). Human ALDH1A2 and ALDH1A3 were purchased from MyBioSource (MBS1005929; San Diego, CA) and ThermoFisher (11636H07E50), respectively. The inhibitory activity of compounds against ALDHs was measured according to protocols described previously. Briefly, 3 μL of enzyme (final concentrations of 20 nM for ALDH1A1, 50 nM for ALDH1A2, 50 nM for ALDH1A3, 75 nM for ALDH2 and 5 nM for ALDH3A1) in assay buffer (100 mM HEPES pH 7.5 with 0.01% Tween 20) were dispensed into a 1,536-well solid-bottom black plate (Greiner Bio One, Monroe, NC). […] Samples were incubated (room temperature, protected from light) for 15 minutes followed by a 1 μL substrate addition of NAD^+ and Propionaldehyde (final concentrations of 1 mM and 80 μM, respectively) for ALDH1A1, 1A2, 1A3, and ALDH2 or NADP^+ and benzaldehyde (final concentrations of 1 mM and 200 μM, respectively) for ALDH3A1. Plates were centrifuged at 1,000 rpm for 15 seconds, then read in kinetic mode on a ViewLux High-throughput CCD imager (PerkinElmer, Waltham, MA) equipped with standard UV fluorescence optics (340 nm excitation, 450 nm emission) for 5 (ALDH1A1, ALDH1A2, ALDH2, ALDH3A1) or 30 (ALDH1A3) minutes. The change in fluorescence intensity over the 5- or 30-minute reaction period was normalized against no-inhibitor and no-enzyme controls and the resulting percent inhibition data were fitted to a 4-parameter Hill equation. Bay-11 7085 was used as intraplate control. To account for artifacts due to intrinsic compound fluorescence in the above spectrum, compounds were also tested in an orthogonal resorufin assay format with optics of excitation 525 nm/emission 598 nm as described before. The same parameters as the NADH assay were used for the resorufin assay, with the addition of (final) 133 μg/mL diaphorase and 37 μM resazurin to the assay solution. Same controls were used in both formats.

MIA PaCa-2 cells = assay: 1,536-well high-content imaging ALDEFLUOR assay, MIA PaCa-2; format: cell-based, human; conditions: semi-automated; active = high quality concentration response curve and >50% efficacy; up to 45.8 μM
Method: as §1, §2, §3, §4

pIC50 (HT-29 cells; fully automated assay, n = 4, read-out: ALDEFLUOR IC50 HT-29 (Fig 5)) | pIC50 (HT-29 cells; validation set, semi-automated protocol, 16-point dilution, 1,000 cells/well, 500 nM BAAA, 30 min, read-out: Aldefluor IC50 HT-29) | Compound | Inhibition of BAAA turnover in LN-229 (ALDH1A1-negative cells) (LN-229 cells) | pIC50 (ALDH1A1) | pIC50 (Human ALDH1A1) | Activity in ALDEFLUOR assay, MIA PaCa-2 (MIA PaCa-2 cells) | Activity in ALDEFLUOR assay, HT-29 (HT-29 cells; semi-automated, active = high quality concentration response curve and >50% efficacy, up to 45.8 μM)
5.48 | 5.36 | CC(C)CCn1c(CN2CCN(C(=O)C3CC3)CC2)nc2c1c(=O)n(C)c(=O)n2C [NCT-501] | inhibited BAAA turnover only in ALDH1A1-expressing cells | […] | – | – | –
– | – | CCSC(=O)N1CCCCCC1 [Molinate] | – | – | 4.57 | tested negative | tested negative
